Earlier results on two molecules are cited in patent publication US20170369926A1, “NEW MARKERS FOR EARLY DIAGNOSIS OF OVARIAN CANCER, MONITORING DURING THERAPY, AND NEW THERAPY OPTIONS DURING AND AFTER CHEMOTHERAPY” (Bioventures, LLC, priority 2011, published 2017).

The target in one series is plasma kallikrein (Homo sapiens, UniProt P03952). The settings on record: from reference (15).
The next series concerns the target hepsin (Homo sapiens, UniProt P05981). Particulars: literature statement.

hepsin, sequence (P05981 whole entry): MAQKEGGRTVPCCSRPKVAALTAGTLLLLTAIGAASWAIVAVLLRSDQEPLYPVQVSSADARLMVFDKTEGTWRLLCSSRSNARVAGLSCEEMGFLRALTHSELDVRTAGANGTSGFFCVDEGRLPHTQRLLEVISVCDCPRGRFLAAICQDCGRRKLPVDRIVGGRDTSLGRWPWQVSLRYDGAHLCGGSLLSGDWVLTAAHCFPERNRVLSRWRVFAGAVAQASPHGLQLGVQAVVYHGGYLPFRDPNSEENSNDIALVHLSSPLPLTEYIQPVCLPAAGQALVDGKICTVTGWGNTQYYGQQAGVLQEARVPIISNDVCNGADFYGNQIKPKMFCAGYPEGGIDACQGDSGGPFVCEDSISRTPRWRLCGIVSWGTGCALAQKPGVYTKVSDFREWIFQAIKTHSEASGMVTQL
plasma kallikrein, sequence (P03952 20-638, species assumed): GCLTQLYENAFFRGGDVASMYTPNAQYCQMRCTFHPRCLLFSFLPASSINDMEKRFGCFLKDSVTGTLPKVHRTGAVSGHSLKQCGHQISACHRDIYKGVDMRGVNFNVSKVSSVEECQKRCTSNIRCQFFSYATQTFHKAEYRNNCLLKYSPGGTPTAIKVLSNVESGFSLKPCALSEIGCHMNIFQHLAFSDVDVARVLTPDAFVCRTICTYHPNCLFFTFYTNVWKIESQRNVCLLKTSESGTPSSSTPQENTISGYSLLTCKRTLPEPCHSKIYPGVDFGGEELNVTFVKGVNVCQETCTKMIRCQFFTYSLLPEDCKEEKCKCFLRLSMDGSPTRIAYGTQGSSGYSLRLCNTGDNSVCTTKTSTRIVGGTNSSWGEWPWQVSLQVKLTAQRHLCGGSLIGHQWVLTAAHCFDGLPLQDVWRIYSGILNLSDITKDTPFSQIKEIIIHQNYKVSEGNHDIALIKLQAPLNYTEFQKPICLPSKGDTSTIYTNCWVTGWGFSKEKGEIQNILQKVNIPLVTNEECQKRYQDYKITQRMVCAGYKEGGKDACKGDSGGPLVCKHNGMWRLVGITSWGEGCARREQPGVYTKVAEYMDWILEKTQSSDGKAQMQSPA

Turning to `CN(C)C(=O)COC(=O)Cc1ccc(OC(=O)c2ccc(NC(=N)N)cc2)cc1.CS(=O)(=O)O` [FOY-305], at plasma kallikrein, the IC50 is 1.5 µM. Also, under “intraperitoneal injection, reference (5)”, the “effective dose by intraperitoneal injection in mice” value is given as 20 mg/kg. Where the note is “oral, in food”, the “effective dose orally in mice” value was 0.1 % of the food.
As to `CC(C)(Sc1cc(C(C)(C)C)c(O)c(C(C)(C)C)c1)Sc1cc(C(C)(C)C)c(O)c(C(C)(C)C)c1` [Probucol, probucol], the inhibition of hepsin entry at hepsin is on record as “inhibits hepsin”.
